This note sets out measurements from patent US20260115250A1, “METHODS OF TREATING AGE-RELATED MACULAR DEGENERATION” (Character Biosciences, Inc., priority 2022, published 2026).

For data set [1], the target named is T1, LDLR (Homo sapiens, UniProt P01130). As to the kind of experiment: KD (µM). The source says: Table printed on a drawing sheet, FIG. 23
Title: Buffer: HBS + 0.05% P20
Head of the field: KD (µM)
The patent's description of the figure: FIG. 23 is a table showing the binding kinetics results of LDLR binding assays (SPR), high surfactant preparation as described herein for select peptides shown in FIG. 1A-1I.
First copying reader's note: Right of three side-by-side panels of FIG. 23; the KD cells hold value ± error together.
Where the first naming reader finds the target: description_of_the_figure: FIG. 23 is a table showing the binding kinetics results of LDLR binding assays (SPR), high surfactant preparation
Target sequence in this assay (P01130 22-860 limits assumed): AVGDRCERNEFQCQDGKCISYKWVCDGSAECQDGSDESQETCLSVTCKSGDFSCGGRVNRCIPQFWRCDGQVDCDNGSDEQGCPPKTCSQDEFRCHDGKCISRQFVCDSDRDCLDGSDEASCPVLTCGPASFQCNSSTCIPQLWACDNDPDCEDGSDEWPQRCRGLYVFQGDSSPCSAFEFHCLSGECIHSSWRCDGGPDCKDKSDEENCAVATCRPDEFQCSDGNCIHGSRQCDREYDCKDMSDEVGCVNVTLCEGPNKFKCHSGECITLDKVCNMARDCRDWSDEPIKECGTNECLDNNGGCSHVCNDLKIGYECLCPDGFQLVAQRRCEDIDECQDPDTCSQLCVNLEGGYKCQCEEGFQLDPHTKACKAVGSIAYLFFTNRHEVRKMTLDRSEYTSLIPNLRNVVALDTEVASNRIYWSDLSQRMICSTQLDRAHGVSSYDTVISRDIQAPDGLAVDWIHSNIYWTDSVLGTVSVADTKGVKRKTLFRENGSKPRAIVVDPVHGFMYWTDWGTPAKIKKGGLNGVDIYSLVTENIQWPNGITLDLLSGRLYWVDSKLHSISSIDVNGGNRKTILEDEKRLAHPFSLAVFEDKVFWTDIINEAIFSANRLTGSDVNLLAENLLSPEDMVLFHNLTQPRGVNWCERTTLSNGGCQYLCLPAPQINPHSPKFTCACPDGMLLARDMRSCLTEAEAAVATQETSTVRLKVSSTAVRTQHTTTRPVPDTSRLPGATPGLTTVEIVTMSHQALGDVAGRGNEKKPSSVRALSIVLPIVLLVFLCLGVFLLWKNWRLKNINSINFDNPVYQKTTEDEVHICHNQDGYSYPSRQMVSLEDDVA

The test system of a further data set is ARPE-19 cells. The data set is described as follows: ARPE-19 cell viability assay (Cell Titer Glo). The note with it: 100 μM peptide, 1.5 hours. Format: cell-based, human. The procedure, abridged:
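Adhered ARPE-19 cells exposed to 100 μM peptide (final) in serum-free DMEM:F12 for 1.5 h at 37° C, then washed. Viability by CellTiter-Glo 2.0 luminescence, background corrected, 0% set by 1% Triton-X-100; mean+SD of two runs.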

Data set [2] deals with T1, LDLR. The data set is described as follows: LDLR binding (SPR), high surfactant preparation. The note with it: high surfactant preparation (HBS-P+), 1:1 binding model; read-out: binding KD to LDLR. The procedure, abridged:
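Surface plasmon resonance with recombinant LDLR amine-coupled to a CM5 chip at 1000 RU. Peptides, 5 μM top concentration then 1:3 dilutions (5 levels) in HBS-P+ with 1 mM CaCl2, injected 120 seconds at 30 μL/sec; multi-cycle kinetics fitted to a 1:1 binding model.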
Target sequence in this assay (P01130 22-860): as the sequence (P01130 22-860 limits assumed) above

In another data set the target is T2, ABCA1 (Mus musculus, UniProt P41233).
T2 construct: endogenous in cells; host or cells: J774 murine macrophage cells, ABCA1 induced with 8-Br-cAMP and AcLDL
As to the kind of experiment: membrane ABCA1 stability testing in J774 cells. The data set is classed as cell-based, murine. The note with it: 4 hours. As to the method:
FIGS. 33A-33C illustrate the results of membrane ABCA1 stability testing in J774 Cells. J774 murine macrophage cells were seeded at 50,000 cells per well on 12-well plates and were allowed to grow to confluence. A vehicle solution of 0.1% BSA in serum-free DMEM was prepared for control wells. An ABCA1 induction solution of 0.1% BSA with 1 mM 8-Br-CAMP and 50 μg/mL AcLDL was prepared in serum-free DMEM and incubated on cells overnight at 37° C. to increase ABCA1 protein levels on the membrane. A solution of 10 μM peptide was prepared in serum-free DMEM and serially diluted 1:10 for 4 concentrations. ApoAI was prepared at a concentration of 300 nM. Peptides or ApoA1 were added to cells for 4 hours at 37° C. before isolating membrane protein and measuring membrane ABCA1 levels by western blot. Blots were quantified in ImageJ and the signal was normalized to membrane Na+/K+ pump levels. Signals were further normalized to the 18-hour cAMP treated group to determine percent (%) Membrane ABCA1 remaining.

Peptide text beside a SMILES is read from it.

T2 sequence (P41233 whole entry): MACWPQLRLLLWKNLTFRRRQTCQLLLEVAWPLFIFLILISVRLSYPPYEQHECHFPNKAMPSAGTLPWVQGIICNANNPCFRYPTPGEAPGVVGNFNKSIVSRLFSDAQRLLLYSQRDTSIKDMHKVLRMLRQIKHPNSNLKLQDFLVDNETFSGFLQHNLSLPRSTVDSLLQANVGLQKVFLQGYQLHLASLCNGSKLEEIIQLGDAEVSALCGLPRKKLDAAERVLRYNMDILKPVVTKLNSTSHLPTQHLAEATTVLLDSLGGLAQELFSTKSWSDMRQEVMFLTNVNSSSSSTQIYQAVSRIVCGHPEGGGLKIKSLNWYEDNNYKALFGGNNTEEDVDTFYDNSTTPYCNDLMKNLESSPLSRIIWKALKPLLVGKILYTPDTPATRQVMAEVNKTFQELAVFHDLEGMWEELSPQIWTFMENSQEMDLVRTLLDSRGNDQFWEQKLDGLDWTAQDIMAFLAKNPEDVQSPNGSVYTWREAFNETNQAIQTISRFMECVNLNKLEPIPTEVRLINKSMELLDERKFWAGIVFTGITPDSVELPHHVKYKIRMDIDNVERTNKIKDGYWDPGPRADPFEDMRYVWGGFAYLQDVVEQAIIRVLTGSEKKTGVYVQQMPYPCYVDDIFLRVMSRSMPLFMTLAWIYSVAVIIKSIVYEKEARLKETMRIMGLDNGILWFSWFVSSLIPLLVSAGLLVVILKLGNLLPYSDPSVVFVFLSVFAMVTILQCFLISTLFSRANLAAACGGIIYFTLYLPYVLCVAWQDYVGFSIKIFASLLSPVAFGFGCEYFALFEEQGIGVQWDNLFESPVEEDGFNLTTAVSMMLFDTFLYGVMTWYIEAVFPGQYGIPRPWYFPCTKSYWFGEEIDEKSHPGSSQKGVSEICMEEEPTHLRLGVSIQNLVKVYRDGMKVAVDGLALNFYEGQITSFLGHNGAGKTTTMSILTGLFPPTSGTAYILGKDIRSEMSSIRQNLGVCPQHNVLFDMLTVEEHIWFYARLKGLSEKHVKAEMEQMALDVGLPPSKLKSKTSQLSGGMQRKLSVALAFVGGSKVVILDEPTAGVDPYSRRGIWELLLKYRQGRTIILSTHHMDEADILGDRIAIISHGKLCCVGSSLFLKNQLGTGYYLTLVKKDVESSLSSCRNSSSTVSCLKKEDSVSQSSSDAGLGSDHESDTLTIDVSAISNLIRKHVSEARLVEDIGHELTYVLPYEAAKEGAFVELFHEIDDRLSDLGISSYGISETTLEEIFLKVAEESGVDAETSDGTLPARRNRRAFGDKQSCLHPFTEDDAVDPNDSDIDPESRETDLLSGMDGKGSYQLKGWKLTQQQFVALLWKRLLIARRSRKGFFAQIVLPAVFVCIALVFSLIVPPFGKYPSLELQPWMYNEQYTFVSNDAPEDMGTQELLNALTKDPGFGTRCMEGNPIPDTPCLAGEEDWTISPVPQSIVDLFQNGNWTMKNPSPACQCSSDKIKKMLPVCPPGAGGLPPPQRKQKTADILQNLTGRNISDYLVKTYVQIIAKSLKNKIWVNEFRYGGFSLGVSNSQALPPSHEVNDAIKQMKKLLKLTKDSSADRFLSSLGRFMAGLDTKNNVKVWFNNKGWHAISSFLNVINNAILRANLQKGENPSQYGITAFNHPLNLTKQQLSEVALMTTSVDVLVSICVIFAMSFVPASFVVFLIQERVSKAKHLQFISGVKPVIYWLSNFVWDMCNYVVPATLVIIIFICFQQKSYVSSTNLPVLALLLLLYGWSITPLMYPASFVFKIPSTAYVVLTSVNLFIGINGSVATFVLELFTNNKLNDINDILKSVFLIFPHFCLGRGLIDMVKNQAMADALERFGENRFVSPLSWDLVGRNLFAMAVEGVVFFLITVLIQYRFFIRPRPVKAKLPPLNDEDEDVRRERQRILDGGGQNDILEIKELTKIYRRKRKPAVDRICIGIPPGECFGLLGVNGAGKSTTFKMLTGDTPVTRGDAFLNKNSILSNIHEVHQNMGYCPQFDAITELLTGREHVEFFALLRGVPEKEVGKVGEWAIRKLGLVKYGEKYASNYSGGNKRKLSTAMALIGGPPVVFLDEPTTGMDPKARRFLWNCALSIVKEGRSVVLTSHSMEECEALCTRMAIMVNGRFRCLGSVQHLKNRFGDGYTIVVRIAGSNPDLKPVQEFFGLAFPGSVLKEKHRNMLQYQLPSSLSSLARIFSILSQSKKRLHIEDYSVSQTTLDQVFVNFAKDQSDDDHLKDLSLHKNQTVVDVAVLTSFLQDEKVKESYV

What is called Kd is a measure of binding affinity in units of concentration. With `CC(C)C[C@H](NC(=O)[C@H](CC(=O)O)NC(=O)[C@H](CCCCN)NC(=O)CNC(=O)[C@H](Cc1ccc(O)cc1)NC(=O)[C@H](CC(=O)O)NC(=O)[C@@H](NC(=O)[C@@H](NC(=O)[C@@H](NC(=O)[C@H](CCC(N)=O)NC(=O)[C@H](Cc1ccccc1)NC(=O)[C@H](Cc1ccc(O)cc1)NC(=O)[C@H](CCC(N)=O)NC(=O)[C@H](CO)NC(=O)[C@@H](NC(=O)[C@H](CC(C)C)NC(=O)[C@H](CO)NC(=O)[C@H](CCCNC(=N)N)NC(=O)[C@H](CC(C)C)NC(=O)[C@H](CC(C)C)NC(=O)[C@H](CCCNC(=N)N)NC(=O)[C@H](CCCCN)NC(=O)[C@H](CCCNC(=N)N)NC(=O)[C@H](CC(C)C)NC(=O)[C@H](CCCCN)NC(=O)[C@H](CCCNC(=N)N)NC(=O)[C@H](CC(C)C)NC(=O)[C@@H](N)Cc1c[nH]cn1)C(C)C)[C@@H](C)O)C(C)C)[C@@H](C)O)C(=O)O` [T-109] (H-HLRKLRKRLLRSLVSQYFQTVTDYGKDL-OH), the Kd at LDLR [1] is 1200 ± 90 nM; on LDLR [2], less than 10 µM. The ARPE-19 cell viability result in the data set on ARPE-19 cells is reported as “substantial change in viability”.

For the compound “ApoA1: positive control protein ApoA1 (apolipoprotein A1)”, the “membrane ABCA1 levels after washout of 8-Br-cAMP” value with ABCA1 is on record as “preserved membrane ABCA1 levels”.
